Like-named read-outs stand apart in the source and are kept apart here.
Assays:
L929 fibroblast [1] = assay: Effect of High Dose Exposure to Piperidino 1,2-Propanediol (Table V), L929; assay type: cell-based, mouse; conditions: 30 min. exposure
Description: (§1) Pigmented S91 melanoma and nonpigmented L929 fibroblast cells were exposed to high doses of piperidino 1,2-propanediol.

L929 fibroblast [2] = assay: Effects of Various Cyclic Amines on Growth of Pigmented Melanoma Cells (Table III), L929; assay type: cell-based, mouse; conditions: for inhibition at 13800 µM: Mus musculus, read-out: Percent Inhibition, L929 fibroblast
Procedure: (§2) Pigmented S91 melanoma and unpigmented L929 fibroblast cells were treated with various cyclic amines at a concentration of 13.8 mM as described in Example 1 above.

melanin-pigmented cells = assay: In vitro selective inhibition of melanin-pigmented cells, effective dosage/time regimens; assay type: cell-based
S91 melanoma [3] = assay: Effects of Various Cyclic Amines on Growth of Pigmented Melanoma Cells (Table III), S91; assay type: cell-based, mouse; conditions: for inhibition at 13800 µM: Mus musculus, read-out: Percent Inhibition, S91 melanoma
Procedure: as §2

S91 melanoma [4] = assay: Effect of High Dose Exposure to Piperidino 1,2-Propanediol (Table V), S91; assay type: cell-based, mouse; conditions: 30 min. exposure
Description: as §1

BHK = assay: cells; conditions: Mesocricetus auratus, read-out: Growth inhibition, Theo. Alone vs. control
Description: (§3) These cell cultures include low passage HFH (HFH-LP), a pigmented line derived from the B-16 mouse melanoma, and NP, an amelanotic clone of HFH-LP. High passage HFH (HFH-HP) was derived from HFH-LP after 30 passages in vitro. […] These cell cultures further include Cloudman S91 mouse melanoma, RPMI 1846 (a Syrian hamster melanoma), baby hamster kidney (BHK) and Chinese hamster ovary (CHO). These cells were maintained as monolayers in Corning plastic flasks in Minimum Essential Medium (Eagle) with Earle's salts supplemented with 10% fetal bovine serum, 100 units of penicillin, 100 mg of streptomycin and 5 mg of amphotericin B per ml in 5% CO2 humidified air at 37° C.
(§4) Single cell suspensions were prepared as described above. Twenty-four hours after seeding, the cells were exposed to either (a) culture medium alone, or (b) culture medium containing 0.5 mM theophylline.
(§5) The values given are the mean from 6 replicates.

RPMI 1946 cells = assay: Pigmentation and growth of cells exposed to theophylline, RPMI 1946; assay type: cell-based, Syrian hamster; conditions: theophylline exposure
Procedure: as §4

[5] = test system: Unpigmented NP, CHO and mouse fibroblast L929 cells; assay: Enhancement of toxicity by theophylline pretreatment, unpigmented cells; assay type: cell-based, mouse; Chinese hamster
Procedure: Twenty-four hours after seeding, the cells were exposed to either (a) culture medium alone, or (b) culture medium containing 0.5 mM theophylline.

NP [6] = assay: cells; conditions: Mus musculus, read-out: Growth inhibition, Theo. Alone vs. control
Description: as §3, §4, §5

HFH-HP = assay: cells; conditions: Mus musculus, read-out: Growth inhibition, Theo. Alone vs. control
Description: as §3, §4, §5

RPMI-1641 [7] = assay: cells; conditions: read-out: Growth inhibition, Theo. Alone vs. control
Description: as §3, §4, §5

HFH-LP and HFH-HP = assay: Pigmentation and growth of cells exposed to theophylline, HFH-LP and HFH-HP; assay type: cell-based, mouse; conditions: theophylline exposure
Procedure: as §4

L929 = assay: cells; conditions: Mus musculus, L929, read-out: Growth inhibition, Theo. Alone vs. control
RPMI-1641 [8] = conditions: lightly pigmented RPMI 1641
Description: as §3, §4, §5

HFH-LP [9] = assay: cells; conditions: Mus musculus, read-out: Growth inhibition, Theo. Alone vs. control
Description: as §3, §4, §5

[10] = test system: S91 (Cloudman S91 mouse melanoma); assay: Effect of Cyclic Amines on Survival of Pigmented Melanoma (Table II), S91; conditions: 24 h, read-out: percentage dead, S91
Procedure: (§6) These cells were maintained as monolayers in Corning plastic flasks in Minimum Essential Medium (Eagle) with Earle's salts supplemented with 10% fetal bovine serum, 100 units of penicillin, 100 mg of streptomycin and 5 mg of amphotericin B per ml in 5% CO2 humidified air at 37° C.
(§7) Prior to dose-response studies, single cell suspensions were prepared in medium following trypsinization and inoculated into Falcon Multiwell plates (2 cm^2 wells) at 3.5×10^4 cells per 0.5 ml of medium. Cultures were maintained for 24 hours before exposure.
(§8) This stock solution was used to prepare test concentrations of the drug in culture medium. […] Cells were exposed to each of these concentrations by adding 0.5 ml of each of the solutions to triplicate test wells and incubating the cells under exposure at 37° C. for 1 hour. […] Cells were harvested after 48 hours and counted with a hemacytometer.

in vitro = conditions: mouse, l929 cells
Procedure: as §6, §7, §8

HFH-LP [11] = assay: Effect of Cyclic Amines on Growth Rate of Pigmented Melanoma (Table I), HFH-LP; assay type: cell-based, mouse
Procedure: (§9) These cell cultures include low passage HFH (HFH-LP), a pigmented line derived from the B-16 mouse melanoma, and NP, an amelanotic clone of HFH-LP. […] These cells were maintained as monolayers in Corning plastic flasks in Minimum Essential Medium (Eagle) with Earle's salts supplemented with 10% fetal bovine serum, 100 units of penicillin, 100 mg of streptomycin and 5 mg of amphotericin B per ml in 5% CO2 humidified air at 37° C.
as §7, §8

HFH-LP [12] = assay: Effect of Cyclic Amines on Survival of Pigmented Melanoma (Table II), HFH-LP; conditions: Mus musculus, 24 h, read-out: percentage dead, HFH-LP
Procedure: as §6, §7, §8

NP [13] = assay: cells; conditions: Mus musculus, 1.5 h, read-out: Effect on Growth Rate (inhibition), NP
Procedure: as §9, §7, §8

[14] = L929, 1 Hour Exposure to 13.8 mM
[15] = S91, 1 Hour Exposure to 13.8 mM

piperidino 1,2-propanediol [piperidino1,2-propanediol]
% inhibition, L929 fibroblast (L929 fibroblast [1]; 13.8 mM): 0% | % inhibition, L929 fibroblast (L929 fibroblast [1]; 34.5 mM): 7% | % inhibition, L929 fibroblast (L929 fibroblast [1]; 69 mM): 10% | % inhibition, L929 fibroblast (L929 fibroblast [1]; 138 mM): 19% | Percent Inhibition, L929 fibroblast (L929 fibroblast [2]; 1 Hour Exposure to 13.8 mM): 1% | in vitro effectiveness of dosage/time regimen (melanin-pigmented cells; 13.8 mM for 1 hour): effective in vitro for inhibiting the growth of melanin-pigmented cells with little or no effect upon unpigmented cells | in vitro effectiveness of dosage/time regimen (melanin-pigmented cells; 35 mM for 30 minutes): effective in vitro for inhibiting the growth of melanin-pigmented cells with little or no effect upon unpigmented cells | Percent Inhibition, S91 melanoma (S91 melanoma [3]; 1 Hour Exposure to 13.8 mM): 46% | % inhibition, S91 melanoma (S91 melanoma [4]; 13.8 mM): 16% | % inhibition, S91 melanoma (S91 melanoma [4]; 34.5 mM): 44% | % inhibition, S91 melanoma (S91 melanoma [4]; 69 mM): 81% | % inhibition, S91 melanoma (S91 melanoma [4]; 138 mM): 91%

CN1CCN(C)CC1 [1,4-dimethylpiperazine]
inhibition at 13800 µM (L929 fibroblast [2]; [14]): 0% | in vitro effectiveness of dosage/time regimen (melanin-pigmented cells; 13.8 mM for 1 hour): effective in vitro for inhibiting the growth of melanin-pigmented cells with little or no effect upon unpigmented cells | inhibition at 13800 µM (S91 melanoma [3]; [15]): 99%

Cn1c(=O)c2[nH]cnc2n(C)c1=O [theophylline, reference compound]
inhibition at 500 µM (BHK): 20% | growth rate (RPMI 1946 cells): similarly affected | pigmentation (RPMI 1946 cells): no visible change in pigmentation | effect of theophylline pretreatment on unpigmented cells [5]: remained unaffected | inhibition at 500 µM (NP [6]): 11% | inhibition at 500 µM (HFH-HP): 40% | inhibition at 500 µM (RPMI-1641 [7]): 35% | growth rate of the cells (HFH-LP and HFH-HP): decreased | pigmentation of the treated cells (HFH-LP and HFH-HP): visible increase in pigmentation | inhibition at 500 µM (L929): -87% | sensitization to morpholine (RPMI-1641 [8]): sensitized the lightly pigmented RPMI 1641 cell line to morpholine | inhibition at 500 µM (HFH-LP [9]): 35%

C1CNCCN1 [piperazine]
cytotoxicity at 13800 µM [10]: 46 ± 5% | cytotoxicity at 24 h, 13800 µM (in vitro): -101% | inhibition at 13800 µM (HFH-LP [11]; Mus musculus, 13.8 mM for 1.5 hr, mean ± S.E., 6 replicates, read-out: Effect on Growth Rate (inhibition), HFH-LP): 24 ± 9% | inhibition of pigmented cell line HFH-LP (in words) (HFH-LP [11]; not as effective as morpholine at the dosage tested): selectively inhibitory to the pigmented cell line HFH-LP, although not as effective as morpholine | inhibition at 13800 µM (L929 fibroblast [2]; [14]): 0% | cytotoxicity at 13800 µM (HFH-LP [12]): -44 ± 4% | in vitro effectiveness of dosage/time regimen (melanin-pigmented cells; 13.8 mM for 1 hour): effective in vitro for inhibiting the growth of melanin-pigmented cells with little or no effect upon unpigmented cells | inhibition at 13800 µM (NP [13]): 0% | inhibition at 13800 µM (S91 melanoma [3]; [15]): 70%

CN1CCNCC1 [1-methylpiperazine]
inhibition at 13800 µM (L929 fibroblast [2]; [14]): 0% | in vitro effectiveness of dosage/time regimen (melanin-pigmented cells; 13.8 mM for 1 hour): effective in vitro for inhibiting the growth of melanin-pigmented cells with little or no effect upon unpigmented cells | inhibition at 13800 µM (S91 melanoma [3]; [15]): 99%

CCN1CCOCC1 [N--ethylmorpholine, reference compound]
inhibition at 13800 µM (L929 fibroblast [2]; [14]): 0% | inhibition at 13800 µM (S91 melanoma [3]; [15]): 0%

c1ccncc1 [Pyridine, reference compound]
inhibition at 13800 µM (L929 fibroblast [2]; L929, 1 h): 0% | inhibition at 13800 µM (S91 melanoma [3]; S91, 1 h): 0%

c1cc(N2CCCCC2)ccn1 [4-piperidinopyridine]
inhibition at 13800 µM (L929 fibroblast [2]; [14]): 14% | in vitro effectiveness of dosage/time regimen (melanin-pigmented cells; 13.8 mM for 1 hour): effective in vitro for inhibiting the growth of melanin-pigmented cells with little or no effect upon unpigmented cells | in vitro effectiveness of dosage/time regimen (melanin-pigmented cells; 35 mM for 30 minutes): effective in vitro for inhibiting the growth of melanin-pigmented cells with little or no effect upon unpigmented cells | inhibition at 13800 µM (S91 melanoma [3]; [15]): 99%

CC1CNC(C)CN1 (stereo not shown) [2,5-dimethylpiperazine]
inhibition at 13800 µM (L929 fibroblast [2]; [14]): 0% | in vitro effectiveness of dosage/time regimen (melanin-pigmented cells; 13.8 mM for 1 hour): effective in vitro for inhibiting the growth of melanin-pigmented cells with little or no effect upon unpigmented cells | inhibition at 13800 µM (S91 melanoma [3]; [15]): 97%

CN1CCOCC1 [N--methylmorpholine, reference compound]
inhibition at 13800 µM (L929 fibroblast [2]; [14]): 0% | inhibition at 13800 µM (S91 melanoma [3]; [15]): 0%

CN1CCCCC1 [1-methylpiperidine]
inhibition at 13800 µM (L929 fibroblast [2]; [14]): 4% | in vitro effectiveness of dosage/time regimen (melanin-pigmented cells; 13.8 mM for 1 hour): effective in vitro for inhibiting the growth of melanin-pigmented cells with little or no effect upon unpigmented cells | inhibition at 13800 µM (S91 melanoma [3]; [15]): 99%

From US4859668A, “Method of inhibiting the growth of melanin-pigmented cells” (North Carolina State University, priority 1988, dated 1989)
